According to patent US8778876B2, “Small-molecule inhibitors of Dengue and West Nile virus proteases” (The Board of Regents of the University of Texas System, priority 2011, dated 2014):
Counter-ions that a name gives are not always drawn.

Legend:
WNV NS2B-NS3pro = WNV NS2B-NS3pro (West Nile virus, UniProt P06935); assay: Steady-state kinetics of inhibitors of WNV NS2B-NS3pro; format: biochemical
DEN2V NS2B-NS3pro = DEN2V NS2B-NS3pro (Dengue virus type 2, UniProt Q91H74); assay: Steady-state kinetics of inhibitors of DEN2V NS2B-NS3pro (Boc-GRR-AMC substrate, Dynafit); format: biochemical, Dengue 2 virus
Sequence of DEN2V NS2B-NS3pro (Q91H74 entry or part of it, added parts left off): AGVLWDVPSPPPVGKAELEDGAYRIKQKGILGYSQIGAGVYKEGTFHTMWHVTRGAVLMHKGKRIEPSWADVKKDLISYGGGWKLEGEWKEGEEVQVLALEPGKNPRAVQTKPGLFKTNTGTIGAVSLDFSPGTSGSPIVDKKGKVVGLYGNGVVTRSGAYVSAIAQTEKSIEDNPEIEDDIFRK
Sequence of DEN2V NS2B-NS3pro (Q91H74 entry or part of it partner, added parts left off): as the sequence (Q91H74 entry or part of it, added parts left off) above

cells = conditions: Yip et al., 2006; cited from earlier work
[1] = target: T1, Bovine pancreatic trypsin (Bos taurus, UniProt P00760); assay: biochemical; format: biochemical
T1 construct: purchased Sigma Aldrich; host or cells: bovine pancreas
T1 sequence (P00760 24-246): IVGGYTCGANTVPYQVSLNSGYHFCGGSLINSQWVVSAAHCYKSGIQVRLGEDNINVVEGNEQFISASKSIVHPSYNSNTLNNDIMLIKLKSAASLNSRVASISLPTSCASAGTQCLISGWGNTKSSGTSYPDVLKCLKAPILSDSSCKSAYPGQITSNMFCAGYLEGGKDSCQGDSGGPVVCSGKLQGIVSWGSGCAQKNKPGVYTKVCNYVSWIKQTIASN

physchem = conditions: pH 9, aqueous with cosolvent or surfactant or cyclodextrin, kinetic from dmso stock
[2] = target: T1, Bovine pancreatic trypsin; assay: Trypsin inhibition assay with chromogenic BAPNA substrate; format: biochemical; conditions: analog at 100 μM
Procedure: Bovine pancreatic trypsin (Sigma Aldrich, St. Louis) and N-α-Benzoyl-DL-arginine 4-nitroanilide hydrochloride (BAPNA) substrate (Sigma Aldrich, St. Louis) were used for trypsin inhibition assays. Trypsin stock solutions were prepared in sodium phosphate buffer (67 mM [pH 7.6]). Trypsin (60 μM) was incubated with chromogenic BAPNA (500 μM) and release of the para-nitroanilide product monitored using a DU640 spectrophotometer (Beckman Coulter, USA) to measure absorption at 415 nm. The slope of the progress curve was determined using linear regression and used as a baseline for comparison with inhibitor reactions.

Sequence of WNV NS2B-NS3pro (P06935 1502-1679 limits assumed): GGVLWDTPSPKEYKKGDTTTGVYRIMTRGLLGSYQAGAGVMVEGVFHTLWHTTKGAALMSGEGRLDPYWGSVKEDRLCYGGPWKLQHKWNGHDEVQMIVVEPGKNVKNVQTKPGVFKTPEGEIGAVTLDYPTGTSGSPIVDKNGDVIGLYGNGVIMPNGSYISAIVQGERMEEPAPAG
Sequence of WNV NS2B-NS3pro (P06935 1424-1463 partner limits assumed): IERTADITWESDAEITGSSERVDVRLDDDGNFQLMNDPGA

CCCCC(CC)CNC(=N)NC(=N)NCCCCCCNC(=N)NC(=N)NCC(CC)CCCC (stereo not shown) [MS28, Alexidine hydrochloride, reference compound]
Ki (WNV NS2B-NS3pro; Ki1, Table 2, WNV NS2B-NS3pro): 12 µM | Ki (WNV NS2B-NS3pro; Ki2, Table 2, WNV NS2B-NS3pro): 28 ± 5 µM | Mechanism (WNV NS2B-NS3pro; Table 2, WNV NS2B-NS3pro): Mixed | Ki (DEN2V NS2B-NS3pro; Ki1, Table 1, DEN2V NS2B-NS3pro): 41 ± 3 µM | Ki (DEN2V NS2B-NS3pro; Ki2, Table 1, DEN2V NS2B-NS3pro): 84 ± 16 µM | Mechanism (DEN2V NS2B-NS3pro; Table 1, DEN2V NS2B-NS3pro, HTS-identified hits): Mixed | ED50 (cell viability reduced by 50%) (cells): low micromolar

O=C1c2c(O)ccc([N+](=O)[O-])c2C(=O)c2c([N+](=O)[O-])ccc(O)c21 [ARDP0006, reference compound]
Mechanism (trypsin inhibition) [1]: uncompetitive trypsin inhibitor | Ki ([1]; Ki2 trypsin): 13 µM | solubility (physchem): > 10 µM | Ki (DEN2V NS2B-NS3pro; Ki1, Table 4, ARDP0006 analogs, DEN2V NS2B-NS3pro): 432 ± 46 µM | Mechanism (DEN2V NS2B-NS3pro; Table 4, ARDP0006 analogs, DEN2V NS2B-NS3pro): competitive inhibition model | Inhibition of trypsin cleavage of the chromogenic substrate [2]: not the chromogenic substrate
